Experimental data taken from US20130096160A1, “ARYLTHIAZOLYL PIPERIDINES AND RELATED COMPOUNDS AS MODULATORS OF SURVIVAL MOTOR NEURON (SMN) PROTEIN PRODUCTION” (Secretary, Department of Health and Human Services, priority 2010, published 2013).

System: SMN2-luciferase reporter
Assay: SMN2-luciferase reporter qHTS assay
Type: cell-based, human
Parameters: key to Curve Class: A curve class of 1.1 is a full agonist/antagonist; a curve class of 4 indicates the compound is inactive
Conditions: for Curve Class: agonist/antagonist character of the concentration-response, lower values = more significant concentration-response; for Increased SMN2 activity: percent increase (or decrease) in SMN2 levels compared to control in which no test compound is added
Excerpt: A cell-based quantitative high throughput screening (qHTS) assay is used to identify compounds able to increase SMN production. The assay uses a SMN2-luciferase reporter to determine if exon 7 of the SMN gene is expressed, which correlates with increased full-length SMN production from the SMN2 gene. As controls, a homologue SMN1-luciferase reporter cell line looks for variations in expression of the SMN1 gene and a cell line with just the luciferase reporter looks at the capacity of the compounds to inhibit luciferase. In addition, increments in SMN production by lead compounds were confirmed by Western-Blot analysis using SMA patient fibroblasts.
For the qHTS assay, concentration-response profiles are generated at the primary-screen level for each library compound to minimize the number of false positives. A dilution series consisting of seven points separated by five-fold concentration differences is prepared for each compound, yielding a concentration series that spans a range of about four orders of magnitude, for example from a high concentration of 50 micromolar to a low concentration of 3.2 nanomolar and providing adequate data for fitting to a Hill equation. For the assay, the SMN2 reporter cell line was plated at a density of ˜2000 cells/well in complete media (phenol red free DMEM, 10% detacl calf serum, and 1× pen/strep), in 1536 well white solid bottom tissue culture treated plates (Greiner). Cells were allowed to adhere and recover at 37 C in 5% CO2 for 10-12 hours. Compounds were added to the plates by a Pintool (Kalypsys) at a volume of 23 nl/well. Cells were incubated in the presence of compounds for 2 days at 37 C in 5% CO2. In order to quantify luciferase reporter levels, 3 ul/well of OneGlo (Promega) was added to each well and incubated at room temperature for 10 minutes. Luminescence from the reporter in each well is measured using a Viewlux CCD based imager (Perkin Elmer) with an integration time of 30 seconds and a binning of 2× in luminescence mode. Sodium butyrate was used as the positive control compound for luciferase induction and a column of 32 wells of 9.2 mM compound on each plate was used to monitor assay performance.
The SMN reporters used herein are modified from those previously described (M. L. Zhang, C. L. Lorson, E. J. Androphy and J. Zhou, An in vivo reporter system for measuring increased inclusion of exon 7 in SMN2 mRNA: potential therapy of SMA, Gene Ther 8 (2001), pp. 1532-1538.)
The sequence of the SMN1 reporter vector used herein is given in SEQ ID NO.:1, while that of the SMN2 reporter vector is given in SEQ ID NO.:2.
Each of the SMN reporters is constructed from three separate DNA fragments: (1) an SMN promotor sequence from the transcriptional reporter p 4.0T (SMN1) or p3.4C (SMN2) described in Monani, et al. Biochimica et Biophysica Acta 1445 (1999) 330-336; (2) a modification of the firefly luciferase splicing reporter for SMN1 or SMN2 described by Zhang et al; and (3) a 744 bp SMN cDNA fragment.
The 3.7 kB SMN1 promoter fragment is obtained by restriction of p4.0T with BglII and SacII. A 3.4 kB SMN2 promoter fragment is obtained by restriction of p3.4C with KpnI and SacII; a 300 bp BglII/KpnI fragment from p4.0T is then added to the 3.4 kB SMN2 promoter fragment to yield the final 3.7 kB SMN2 promoter fragment.
The modified SMN1 and SMN2 firefly luciferase splicing reporters are obtained by removing 4 kB of intron 6 in the original reporter system by restriction with SmaI/Swa followed by religation of the reporter. A 4 kB luciferase splicing reporter is then obtaind by digestion with XhoI and NotI.
Ths SMN cDNA fragment is obtained by generating the productof a polymerase chain reaction (PCR) on a cDNA preparation using […] (SEQ ID NO:3) as the forward primer and Tatctcgagtggtccagaaggaaatggaggcagcc (SEQ ID NO:4) as the reverse primer. The PCR product is then digested with XhoI and SacII. […]

Row | SMILES | Curve Class | Increased SMN2 activity
1 | CN(C)c1ccc(-c2csc(N3CCC(C(N)=O)CC3)n2)cc1 [Example 100, 1-(4-(4-(Dimethylamino)Phenyl)Thiazol-2-yl)Piperidine-4-Carboxamide] | 2.2 | 64.26%
2 | COc1cc(OC)cc(-c2csc(N3CCC(C(N)=O)CC3)n2)c1 [Example 85, 1-(4-(3,5-Dimethoxyphenyl)Thiazol-2-yl)Piperidine-4-Carboxamide] | 1.4 | 44.77%
3 | CN(C)c1cccc(-c2cc(N3CCC(C(N)=O)CC3)ncn2)c1 [Example 143, 1-(6-(3-(Dimethylamino)Phenyl)Pyrimidin-4-yl)Piperidine-4-Carboxamide] | 2.1 | 81.27%
4 | NC(=O)C1CCN(c2nc(-c3ccc(OC(F)(F)F)cc3)cs2)CC1 [Example 95, 1-(4-(4-(Trifluoromethoxy)Phenyl)Thiazol-2-yl)Piperidine-4-Carboxamide] | 1.1 | 296.8%
5 | NC(=O)C1CCN(c2nc(-c3cccc(Br)c3)cs2)CC1 [Example 26, 1-(4-(3-Bromophenyl)Thiazol-2-yl)Piperidine-4-Carboxamide] | 2.2 | 57.55%
6 | CN(C)c1cccc(-c2nnc(N3CCC(C(N)=O)CC3)s2)c1 [Example 132, 1-(5-(3-(Dimethylamino)Phenyl)-1,3,4-Thiadiazol-2-yl)Piperidine-4-Carboxamide] | 1.1 | 448.5%
7 | COc1cccc(-c2csc(N3CCC(C(N)=O)CC3)n2)c1 [Example 35, 1-(4-(3-Methoxyphenyl)Thiazol-2-yl)Piperidine-4-Carboxamide] | 1.1 | 357%
8 | CCOc1ccc(-c2csc(N3CCC(C(N)=O)CC3)n2)cc1 [Example 96, 1-(4-(4-Ethoxyphenyl)Thiazol-2-yl)Piperidine-4-Carboxamide] | 1.1 | 211.6%
9 | COc1ccc(-c2csc(N3CCC(C(N)=O)CC3)n2)cc1OC [Example 83, 1-(4-(3,4-Dimethoxyphenyl)Thiazol-2-yl)Piperidine-4-Carboxamide] | 2.4 | 58.51%
10 | NC(=O)C1CCN(c2nc(-c3ccc4c(c3)OCO4)cs2)CC1 [Example 47, 1-(4-(Benzo[D][1,3]Dioxol-5-yl)Thiazol-2-yl)Piperidine-4-Carboxamide] | 1.1 | 359.16%
11 | NC(=O)C1CCN(c2nc(-c3ccc(F)cc3)cs2)CC1 [Example 19, 1-(4-(4-Fluorophenyl)Thiazol-2-yl)Piperidine-4-Carboxamide] | 1.1 | 287.7%
12 | NC(=O)C1CCN(c2nc(-c3ccc(N4CCCCC4)nc3)cs2)CC1 [Example 60, 1-(4-(6-(Piperidin-1-yl)Pyridin-3-yl)Thiazol-2-yl)Piperidine-4-Carboxamide] | 2.1 | 100%
13 | NC(=O)C1CCN(c2nc(-c3cc4ccccc4o3)cs2)CC1 [Example 68, 1-(4-(Benzofuran-2-yl)Thiazol-2-yl)Piperidine-4-Carboxamide] | 2.1 | 100%
14 | O=C(NCCc1ccccc1)C1CCN(c2nc(-c3ccc(Br)cc3)cs2)CC1 [Example 77, 1-(4-(4-Bromophenyl)Thiazol-2-yl)-N-Phenethylpiperidine-4-Carboxamide] | 2.4 | 31.29%
15 | NC(=O)C1CCN(c2ncc(-c3ccc(Br)cc3)s2)CC1 [Example 87, 1-(5-(4-Bromophenyl)Thiazol-2-yl)Piperidine-4-Carboxamide] | 1.1 | 598.7%
16 | NC(=O)C1CCN(c2cc(-c3ccc4c(c3)OCCCO4)ncn2)CC1 [Example 142, 1-(6-(3,4-Dihydro-2H-Benzo[B][1,4]Dioxepin-7-yl)Pyrimidin-4-yl)Piperidine-4-Carboxamide] | 1.1 | 211.1%
17 | CN(C)c1cccc(-c2ncnc(N3CCC(C(N)=O)CC3)n2)c1 [Example 145, 1-(4-(3-(Dimethylamino)Phenyl)-1,3,5-Triazin-2-yl)Piperidine-4-Carboxamide] | 1.1 | 199.9%
18 | NC(=O)C1CCN(c2nc(-c3cccc4sc5ccccc5c34)cs2)CC1 [Example 64, 1-(4-(Dibenzo[b,d]Thiophen-1-yl)Thiazol-2-yl)Piperidine-4-Carboxamide] | 2.1 | 369%
19 | CC(=O)c1cccc(-c2csc(N3CCC(C(N)=O)CC3)n2)c1 [Example 55, 1-(4-(3-Acetylphenyl)Thiazol-2-yl)Piperidine-4-Carboxamide] | 1.1 | 356%
20 | c1c[nH]c(C2CCN(c3ncc(-c4ccc5c(c4)OCCCO5)s3)CC2)n1 [Example 135, 2-(4-(1H-Imidazol-2-yl)Piperidin-1-yl)-5-(3,4-Dihydro-2H-Benzo[B][1,4] Dioxepin-7-yl)Thiazole] | 1.1 | 129.4%
21 | CN(C)c1cccc(-c2cnc(N3CCC(C(N)=O)CC3)nc2)c1 [Example 89, 1-(5-(3-(Dimethylamino)Phenyl)Pyrimidin-2-yl)Piperidine-4-Carboxamide] | 1.1 | 236.25%
22 | NC(=O)C1CCN(c2ncc(-c3ccc4c(c3)OC(F)(F)O4)s2)CC1 [Example 153, 1-(5-(2,2-Difluorobenzo[D][1,3]Dioxol-5-yl)Thiazol-2-yl)Piperidine-4-Carboxamide] | 1.1 | 598.4%
23 | NC(=O)C1CCN(c2ncc(-c3cccc(N4CCCCC4)c3)s2)CC1 [Example 138, 1-(5-(3-(Piperidin-1-yl)Phenyl)Thiazol-2-yl)Piperidine-4-Carboxamide] | 1.1 | 565.6%
24 | CC(=O)N1CCN(c2nc(-c3ccc(Br)cc3)cs2)CC1 [Example 110, 1-(4-(4-(4-Bromophenyl)Thiazol-2-yl)Piperazin-1-yl)Ethanone] | 1.1 | 234.5%
25 | Brc1ccc(-c2csc(N3CCNCC3)n2)cc1 [Example 108, 4-(4-Bromophenyl)-2-(Piperazin-1-yl)Thiazole] | −2.1 | −97.29%
26 | CC(C)Oc1ccc(-c2csc(N3CCC(C(N)=O)CC3)n2)cc1 [Example 91, 1-(4-(4-Isopropoxyphenyl)Thiazol-2-yl)Piperidine-4-Carboxamide] | 1.1 | 178.2%
27 | NC(=O)C1CCN(c2nc(-c3ccccc3N)cs2)CC1 [Example 53, 1-(4-(2-Aminophenyl)Thiazol-2-yl)Piperidine-4-Carboxamide] | 3 | 79.57%
28 | CNC(=O)C1CCN(c2nc(-c3ccc(Br)cc3)cs2)CC1 [Example 70, 1-(4-(4-Bromophenyl)Thiazol-2-yl)-N-Methylpiperidine-4-Carboxamide] | 2.1 | 101.9%
29 | CC(=O)c1ccc(-c2csc(N3CCC(C(N)=O)CC3)n2)cc1 [Example 45, 1-(4-(4-Acetylphenyl)Thiazol-2-yl)Piperidine-4-Carboxamide] | 2.1 | 130.4%
